Source: ChEMBL document CHEMBL2029213, “Multiple determinants for selective inhibition of apicomplexan calcium-dependent protein kinase CDPK1” (J Med Chem, 2012)

Assays:
[1] = biological target: Proto-oncogene tyrosine-protein kinase Src (Homo sapiens, UniProt P12931)
Description: Inhibition of human SRC by radiometric assay

[2] = biological target: Tyrosine-protein kinase ABL1 (Homo sapiens, UniProt P00519)
Sequence of Tyrosine-protein kinase ABL1 (P00519 whole entry): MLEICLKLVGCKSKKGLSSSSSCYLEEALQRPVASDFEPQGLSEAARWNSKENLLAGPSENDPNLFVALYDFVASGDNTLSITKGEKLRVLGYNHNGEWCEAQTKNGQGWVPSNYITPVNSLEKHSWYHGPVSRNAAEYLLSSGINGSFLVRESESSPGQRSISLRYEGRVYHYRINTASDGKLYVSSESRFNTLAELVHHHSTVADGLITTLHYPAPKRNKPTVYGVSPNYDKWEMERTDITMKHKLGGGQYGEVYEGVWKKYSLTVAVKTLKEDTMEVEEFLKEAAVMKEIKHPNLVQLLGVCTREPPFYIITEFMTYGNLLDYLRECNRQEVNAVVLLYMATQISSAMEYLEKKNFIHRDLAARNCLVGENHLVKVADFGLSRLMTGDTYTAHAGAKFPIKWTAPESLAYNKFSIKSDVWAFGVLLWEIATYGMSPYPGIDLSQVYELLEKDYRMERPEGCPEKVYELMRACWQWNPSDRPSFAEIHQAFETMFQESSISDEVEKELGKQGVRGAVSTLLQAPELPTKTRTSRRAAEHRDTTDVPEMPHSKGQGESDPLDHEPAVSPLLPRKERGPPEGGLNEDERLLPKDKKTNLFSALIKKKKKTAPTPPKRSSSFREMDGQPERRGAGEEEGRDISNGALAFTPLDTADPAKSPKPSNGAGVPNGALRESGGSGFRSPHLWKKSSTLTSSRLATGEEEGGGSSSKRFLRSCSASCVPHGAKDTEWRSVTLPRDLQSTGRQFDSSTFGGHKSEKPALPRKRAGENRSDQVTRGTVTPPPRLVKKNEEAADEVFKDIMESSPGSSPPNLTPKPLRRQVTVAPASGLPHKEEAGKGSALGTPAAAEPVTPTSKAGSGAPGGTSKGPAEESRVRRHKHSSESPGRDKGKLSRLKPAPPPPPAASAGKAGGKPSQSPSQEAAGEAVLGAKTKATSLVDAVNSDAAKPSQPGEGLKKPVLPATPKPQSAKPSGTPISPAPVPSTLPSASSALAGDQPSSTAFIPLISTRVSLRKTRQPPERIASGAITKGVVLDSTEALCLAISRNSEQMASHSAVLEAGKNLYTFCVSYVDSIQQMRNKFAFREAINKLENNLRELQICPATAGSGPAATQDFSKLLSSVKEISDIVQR
Description: Inhibition of human ABL by radiometric assay

Sequence of Proto-oncogene tyrosine-protein kinase Src (P12931 2-536 limits assumed): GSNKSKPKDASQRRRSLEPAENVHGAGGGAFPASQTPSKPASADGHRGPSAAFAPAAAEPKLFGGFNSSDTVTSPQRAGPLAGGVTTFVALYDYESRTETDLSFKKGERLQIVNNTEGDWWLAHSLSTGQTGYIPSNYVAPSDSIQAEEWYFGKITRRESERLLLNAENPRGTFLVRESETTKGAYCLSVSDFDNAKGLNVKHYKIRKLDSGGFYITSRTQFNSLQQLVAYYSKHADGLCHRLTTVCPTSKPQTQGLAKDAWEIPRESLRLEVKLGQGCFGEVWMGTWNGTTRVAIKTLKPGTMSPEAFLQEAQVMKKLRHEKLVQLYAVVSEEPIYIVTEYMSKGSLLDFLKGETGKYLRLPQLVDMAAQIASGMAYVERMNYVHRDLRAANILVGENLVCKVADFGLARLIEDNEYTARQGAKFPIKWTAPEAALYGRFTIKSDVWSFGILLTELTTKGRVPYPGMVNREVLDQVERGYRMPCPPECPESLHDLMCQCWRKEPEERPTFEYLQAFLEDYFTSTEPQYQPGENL

Compound	Ki [1]	Ki [2]
CCOc1ccc2cc(-c3nn(CC4CCNCC4)c4ncnc(N)c34)ccc2c1	> 20 µM	> 15 µM
Nc1nc2ccc(C(=O)c3ccccc3)cc2[nH]1	> 10 µM	10 µM
COC(=O)Nc1nc2ccc(C(=O)c3ccccc3)cc2[nH]1 [MEBENDAZOLE]	–	4.6 µM
Nc1nc2ccc(C(=O)c3ccccc3)cc2n1CC1CCNCC1	> 10 µM	> 10 µM

The remaining lines, values ahead:

Ki [1]	Ki [2]	Compound
1.24 µM	–	CC(C)n1nc(-c2cc3c(Cl)cccc3[nH]2)c2c(N)ncnc21
> 20 µM	> 15 µM	Nc1ncnc2c1c(-c1cnc3ccccc3c1)nn2CC1CCNCC1
0.77 µM	–	COc1ccc2cc(-c3nn(C(C)C)c4ncnc(N)c34)ccc2c1
> 20 µM	> 15 µM	COc1ccc2cc(-c3nn(CC4CCNCC4)c4ncnc(N)c34)ccc2c1
> 10 µM	> 10 µM	Nc1ncnc2c1cnn2CC1CCNCC1
